Test results: ChEMBL document CHEMBL1806354 (J Med Chem, 2011)
Activity calls are given as the source filed them. The calls are words filed in the database; no cut-off is given here.

How the values were obtained:
Rattus norvegicus [1] = assay: Antiparkinsonian activity in 6-hydroxydopamine lesioned Sprague-Dawley rat assessed as contralateral rotations at 0.5 to 1.5 mg/kg, ip measured every 5 mins for 6 hrs; type: functional, organism-based
Rattus norvegicus [2] = assay: Antiparkinsonian effect in Parkinson's disease rat model of assessed as reduction in L-DOPA-induced dyskinesia at 0.5 to 1.5 mg/kg, ip qd for 21 days treated 15 mins before L-DOPA challenge measured on day 14, 17 and 23; type: functional, organism-based
[3] = molecular target: T1, Alpha-1A adrenergic receptor (Homo sapiens, UniProt P35348); assay: Antagonist activity at adrenergic alpha1A receptor expressed in CHO cells assessed as inhibition of adrenaline-induced intracellular calcium level after 3 to 5 mins by Fluo-4/AM assay; type: functional, cell-based
T1 sequence (P35348 whole entry): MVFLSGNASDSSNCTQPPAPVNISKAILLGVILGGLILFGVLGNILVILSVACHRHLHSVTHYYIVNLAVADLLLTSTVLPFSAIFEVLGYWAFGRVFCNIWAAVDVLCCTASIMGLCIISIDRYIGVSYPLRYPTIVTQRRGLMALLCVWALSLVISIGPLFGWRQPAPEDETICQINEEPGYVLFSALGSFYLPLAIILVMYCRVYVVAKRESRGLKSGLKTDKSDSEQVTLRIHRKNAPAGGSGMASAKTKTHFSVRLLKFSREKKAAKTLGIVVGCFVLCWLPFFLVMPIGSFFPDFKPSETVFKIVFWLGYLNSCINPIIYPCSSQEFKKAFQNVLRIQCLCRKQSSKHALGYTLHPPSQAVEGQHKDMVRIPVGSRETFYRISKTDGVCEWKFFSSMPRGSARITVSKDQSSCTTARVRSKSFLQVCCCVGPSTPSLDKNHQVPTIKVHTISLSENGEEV

[4] = molecular target: T2, Alpha-1B adrenergic receptor (Homo sapiens, UniProt P35368); assay: Antagonist activity at adrenergic Alpha-1B receptor expressed in CHO cells assessed as inhibition of adrenaline-induced intracellular calcium after 3 to 5 mins by Fluo-4/AM assay; type: functional, cell-based
T2 sequence (P35368 whole entry): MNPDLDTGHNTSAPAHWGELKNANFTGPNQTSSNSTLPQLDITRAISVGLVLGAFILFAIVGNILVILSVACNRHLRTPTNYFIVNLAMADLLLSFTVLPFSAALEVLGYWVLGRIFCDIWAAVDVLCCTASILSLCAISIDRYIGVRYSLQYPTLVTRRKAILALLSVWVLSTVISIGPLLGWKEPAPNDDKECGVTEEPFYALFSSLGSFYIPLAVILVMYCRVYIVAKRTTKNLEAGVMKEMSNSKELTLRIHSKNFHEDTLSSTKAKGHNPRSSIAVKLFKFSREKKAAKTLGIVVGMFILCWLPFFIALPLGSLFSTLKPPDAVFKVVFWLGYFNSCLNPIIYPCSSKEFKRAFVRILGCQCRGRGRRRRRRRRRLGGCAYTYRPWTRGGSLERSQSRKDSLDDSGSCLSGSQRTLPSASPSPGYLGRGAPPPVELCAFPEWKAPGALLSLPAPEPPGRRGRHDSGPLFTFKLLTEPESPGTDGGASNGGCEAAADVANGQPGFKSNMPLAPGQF

Rattus norvegicus [5] = assay: Toxicity in Parkinson's disease rat model of assessed as induction of dyskinesia at 0.5 to 1.5 mg/kg, ip qd for 21 days; type: organism-based; design: dose 0.5-1.5 mg/kg, route intraperitoneal; conditions: in vivo, 504 h

IC50 [3]: > 10 µM | IC50 [4]: > 10 µM
Structure (SMILES): CCCN1CCc2cccc3c2[C@H]1Cc1cccc(OC(=O)CCCCC2CCSS2)c1-3 (stereo not given in full)
Activity (Rattus norvegicus [1]): Active | Activity (Rattus norvegicus [2]): Active | Activity (Rattus norvegicus [5]): Non-toxic
